Consider one compound from patent US20260158002A1, “APPLICATION OF COMPOSITION CONTAINING EDARAVONE AND DEXBORNEOL IN IMPROVING OR TREATING COGNITIVE IMPAIRMENT” (NEURODAWN PHARMACEUTICAL CO., LTD., priority 2021, published 2026).

The test system of data set [1] is ICV-STZ model rats. As to the kind of experiment: Morris water maze test in rats of intracerebroventricular STZ-induced dementia. The data set is classed as in vivo, rat. As to conditions: edaravone 6 mg/kg (plus dexborneol 0.8, 1.2 or 2.4 mg/kg), intraperitoneal, once daily. How it is done:
The experimental animals were divided into […]: sham surgery group, model group, edaravone group (6 mg/kg), edaravone and dexborneol (7.5:1) composition (edaravone 6 mg/kg, dexborneol 0.8 mg/kg), edaravone and dexborneol (5:1) composition (edaravone 6 mg/kg, dexborneol 1.2 mg/kg), and edaravone and dexborneol (2.5:1) composition (edaravone 6 mg/kg, dexborneol 2.4 mg/kg). The animals in the model group and sham surgery groups were given the corresponding volume of blank solvent (8% propylene glycol), all administrations were intraperitoneal injection administrations, and the administration volume is 10 ml/kg.
In addition to the sham surgery group, animals with successful surgery were randomly assigned to the model group and administration groups in order. […]
This trial lasted for 4 days. The platform was fixed in the target quadrant (SE quadrant) during the trial, water entry was performed from the water entry points of the four quadrants, respectively, animals were gently placed in the water facing the sign on the pool wall during training, the time (escape latency) for the animal to find the platform was recorded, and then the animal was allowed to stay on the platform for 10 s. […]

For data set [2], the system named is 5×FAD transgenic mice. As to the kind of experiment: AD pathology examination (immunohistochemical test) in 5×FAD transgenic mice. The data set is classed as in vivo, mouse. The settings on record: 5×FAD mice; edaravone 6 mg/kg or composition 7.5 mg/kg i.p. once daily for 16 weeks. How it is done:
In the experiment, the animals were divided into 4 groups. Administration was performed on the mice in each group from 8 weeks of age. After 16 weeks of continuous daily administration, water maze and Y maze behavioral tests were performed. After the behavioral tests were completed, the animals were sacrificed, and brain slice electrophysiology and AD pathology within the brain were tested, including the test of Aβ plaques, biomarkers such as GFAP and Iba-1, p-Tau, etc.
After the behavioral test of animals was completed, the mice were subjected to cardiac perfusion followed by brain removal, and the brain was fixed in 4% paraformaldehyde for 24 h, dehydrated with 30% sucrose, snap-frozen and embedded with an embedding medium, and sliced (thickness […]). The brain slices having the hippocampal region were selected, washed with PBS for 5 min×3 times, permeabilized with 0.2% Triton, washed with PBS for 7 min×3 times, and blocked with Blocking buffer (2.5% BSA, 0.3% Triton) for 1 h. The brain slices were placed in a primary antibody overnight at 4° C. On the second day, the brain slices in the primary antibody were taken out, washed with PBS for 5 min×3 times, placed in a second antibody, and incubated for 1 h at room temperature in the dark. The brain slices were taken out and washed with PBS for 5 min×3 times. An anti-fluorescence quencher containing DAPI was added dropwise, and the slices were mounted.
Data were expressed as Mean±SEM. Statistical analysis between groups was performed using Prism software (GraphPad, USA): One-way or Two-way ANOVA was used for comparison of two or more groups, and then Fisher's LSD test was selected for analysis. P<0.05 indicated significant difference. ##p<0.01, ###p<0.001, ####p<0.0001, comparison with WT group; *p<0.05, **p<0.01, […], ****p<0.0001, comparison with model group; & p<0.05, &&p<0.01, &&&&p<0.0001, comparison between two groups indicated.

Data set [3] deals with SH-SY5Y-APP695. The settings on record: 0.3 to 3 μM; cited from earlier work.
In data set [4] the test system is rat model in which oligomerized Aβ1-40 is injected into the hippocampal dentate gyrus. As to conditions: edaravone 5 mg/kg at the same site with intracerebral Aβ injection; cited from earlier work.
The subject of data set [5] is ICV-STZ model rats. As to conditions: cited from earlier work.
For data set [6] the following is noted: mice; cited from earlier work.
Data set [7] concerns tau P301L transgenic mouse model. The settings on record: tau P301L mice aged 9 to 10 months and 21 months; oral with drinking water 24 mg/kg/day for 3 consecutive months; cited from earlier work.

`CC1=NN(c2ccccc2)C(=O)C1` [edaravone, 3-methyl-1-phenyl-2-pyrazolin-5-one]: in data set [1], the “escape latency in water maze hidden platform trial, vs model group” value is listed as “could significantly shorten the escape latency” and the “residence time in the target quadrant in water maze space probe trial, vs model group” value is “significantly prolonged”. Moreover, in data set [2], the “astrogliosis within the brain, vs solvent control group” value is recorded as “could significantly decrease”; the “hippocampal tau protein hyperphosphorylation, vs solvent control group” value is “could significantly decrease”; the “microgliosis within the brain, vs solvent control group” value is “could significantly decrease”; the “β-amyloid plaques within the brain, vs solvent control group” value was “could significantly decrease”. In data set [3], the “BACE1 expression, cleavage of APP and Aβ production” value is “capable of reducing BACE1 expression, cleavage of APP and Aβ production in a concentration-dependent manner”; the “GSK-3β activation and tau phosphorylation” value was “inhibiting GSK-3β activation and reducing tau phosphorylation”. Besides, in data set [4], the “spatial learning and memory in water maze” value is “can significantly improve the spatial learning and memory of rats in water maze”. For the same compound, the “spatial learning and memory (Morris water maze) and non-spatial long-term memory (step-down passive avoidance)” value in data set [5] (intraperitoneal 9 mg/kg/day for 14 consecutive days) was “can significantly improve the spatial learning and memory”. For the same compound, the “cognitive function in water maze test and passive avoidance test” value in data set [5] (oral 1, 3 and 10 mg/kg/day for 28 consecutive days) is “can also improve the cognitive function of ICV-STZ rats in water maze test and passive avoidance test”. Moreover, the oral bioavailability in data set [6] was 38%. For the same compound, in data set [7], the “cognitive function in water maze test and novel object recognition test” value was “can significantly improve the cognitive function of the animals in water maze test and novel object recognition test”.
